Legend:
[1] = Powder flow characteristics from crystal morphology at bench scale; format: physicochemical; settings: Form II plate-like morphology vs Form I needle-like
[2] = Storage stability of crystalline Form II (conversion to Form I); format: physicochemical; settings: stored under room temperature and pressure
Source text: Stable Form II can be prepared as described and stored under room temperature and pressure for greater than 3 months without conversion to Form I.

## COC1CC2CCC(C)C(O)(O2)C(=O)C(=O)N2CCCCC2C(=O)OC(C(C)CC2CCC(OC(=O)C(C)(CO)CO)C(OC)C2)CC(=O)C(C)/C=C(\C)C(O)C(OC)C(=O)C(C)CC(C)/C=C/C=C/C=C/1C (centres unmarked) [CCI-779 polymorph Form II, Rapamycin 42-ester with 3-hydroxy-2-(hydroxymethyl)-2-methylpropionic acid]
[1]
  powder flow characteristics relative to Form I: better powder flow characteristics than form I
[2]
  storage time without conversion to Form I: greater than 3 months

Source: US7442707B2, “CCI-779 polymorph and use thereof” (Wyeth, priority 2005, dated 2008)
